Results as given in article PMC7178174, “Residues in Transmembrane Segments of the P2X4 Receptor Contribute to Channel Function and Ethanol Sensitivity” (International Journal of Molecular Sciences, 2020).
Numbering of substitutions follows the chain as printed.

Key:
Format in all cases: cell-based
[1] = target: T1, rat P2X4R (P2X4 receptor) (Rattus norvegicus, UniProt P51577, W46A); assay: two-electrode voltage clamp, Xenopus oocytes, ATP-gated current
T1 construct: gene P2rx4; full-length cDNA in pcDNA3, cRNA expressed in Xenopus laevis oocytes; homomeric trimer; ~60 kDa band
T1 sequence (P51577 1-388 W46A): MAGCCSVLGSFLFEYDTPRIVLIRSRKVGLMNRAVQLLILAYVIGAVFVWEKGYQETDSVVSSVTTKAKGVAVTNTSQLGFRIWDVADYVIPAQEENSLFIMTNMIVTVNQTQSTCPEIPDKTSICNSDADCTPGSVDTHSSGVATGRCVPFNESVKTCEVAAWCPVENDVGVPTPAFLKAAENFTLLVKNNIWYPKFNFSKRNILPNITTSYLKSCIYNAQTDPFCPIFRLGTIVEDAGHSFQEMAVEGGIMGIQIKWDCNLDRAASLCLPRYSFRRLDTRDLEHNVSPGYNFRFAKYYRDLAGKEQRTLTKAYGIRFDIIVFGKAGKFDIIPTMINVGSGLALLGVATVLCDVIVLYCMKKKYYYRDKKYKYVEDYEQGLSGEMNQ
From the text: (§1) two-electrode voltage clamp, Xenopus oocytes, ATP-gated current on rat P2X4R (P2X4 receptor)

[2] = target: T2, rat P2X4R (P2X4 receptor) (Rattus norvegicus, UniProt P51577, V49L); assay: as above
T2 construct: gene P2rx4; full-length cDNA in pcDNA3, cRNA expressed in Xenopus laevis oocytes; homomeric trimer; ~60 kDa band
T2 sequence (P51577 1-388 V49L): T1 sequence (P51577 1-388 W46A) with A46W, V49L
From the text: as §1

[3] = target: T3, rat P2X4R (P2X4 receptor) (Rattus norvegicus, UniProt P51577, L37A); assay: as above
T3 construct: gene P2rx4; full-length cDNA in pcDNA3, cRNA expressed in Xenopus laevis oocytes; homomeric trimer; ~60 kDa band
T3 sequence (P51577 1-388 L37A): T1 sequence (P51577 1-388 W46A) with L37A, A46W
From the text: as §1

[4] = target: T4, rat P2X4R (P2X4 receptor) (Rattus norvegicus, UniProt P51577, R33A); assay: as above
T4 construct: gene P2rx4; full-length cDNA in pcDNA3, cRNA expressed in Xenopus laevis oocytes; homomeric trimer; ~60 kDa band
T4 sequence (P51577 1-388 R33A): T1 sequence (P51577 1-388 W46A) with R33A, A46W
From the text: as §1

[5] = target: T5, rat P2X4R (P2X4 receptor) (Rattus norvegicus, UniProt P51577, R33S); assay: as above
T5 construct: gene P2rx4; full-length cDNA in pcDNA3, cRNA expressed in Xenopus laevis oocytes; homomeric trimer; ~60 kDa band
T5 sequence (P51577 1-388 R33S): T1 sequence (P51577 1-388 W46A) with R33S, A46W
From the text: as §1

[6] = target: T6, rat P2X4R (P2X4 receptor) (Rattus norvegicus, UniProt P51577, A34W); assay: as above
T6 construct: gene P2rx4; full-length cDNA in pcDNA3, cRNA expressed in Xenopus laevis oocytes; homomeric trimer; ~60 kDa band
T6 sequence (P51577 1-388 A34W): T1 sequence (P51577 1-388 W46A) with A34W, A46W
From the text: as §1

[7] = target: T7, rat P2X4R (P2X4 receptor) (Rattus norvegicus, UniProt P51577, V49G); assay: as above
T7 construct: gene P2rx4; full-length cDNA in pcDNA3, cRNA expressed in Xenopus laevis oocytes; homomeric trimer; ~60 kDa band
T7 sequence (P51577 1-388 V49G): T1 sequence (P51577 1-388 W46A) with A46W, V49G
From the text: as §1

[8] = target: T8, rat P2X4R (P2X4 receptor) (Rattus norvegicus, UniProt P51577); assay: as above
T8 construct: gene P2rx4; full-length cDNA in pcDNA3, cRNA expressed in Xenopus laevis oocytes; homomeric trimer; ~60 kDa band
T8 sequence (P51577 1-388): T1 sequence (P51577 1-388 W46A) with A46W
From the text: as §1

[9] = target: T9, rat P2X4R (P2X4 receptor) (Rattus norvegicus, UniProt P51577, F48A); assay: as above
T9 construct: gene P2rx4; full-length cDNA in pcDNA3, cRNA expressed in Xenopus laevis oocytes; homomeric trimer; ~60 kDa band
T9 sequence (P51577 1-388 F48A): T1 sequence (P51577 1-388 W46A) with A46W, F48A
From the text: as §1

[10] = target: T10, rat P2X4R (P2X4 receptor) (Rattus norvegicus, UniProt P51577, R33L); assay: as above
T10 construct: gene P2rx4; full-length cDNA in pcDNA3, cRNA expressed in Xenopus laevis oocytes; homomeric trimer; ~60 kDa band
T10 sequence (P51577 1-388 R33L): T1 sequence (P51577 1-388 W46A) with R33L, A46W
From the text: as §1

[11] = target: T11, rat P2X4R (P2X4 receptor) (Rattus norvegicus, UniProt P51577, R33K); assay: as above
T11 construct: gene P2rx4; full-length cDNA in pcDNA3, cRNA expressed in Xenopus laevis oocytes; homomeric trimer; ~60 kDa band
T11 sequence (P51577 1-388 R33K): T1 sequence (P51577 1-388 W46A) with R33K, A46W
From the text: as §1

[12] = target: T8, rat P2X4R (P2X4 receptor); assay: two-electrode voltage clamp, Xenopus oocytes, inhibition of ATP-gated current; details: read-out: % inhibition at 100 mM

EC50 [1] [µM] | EC50 [2] [µM] | EC50 [3] [µM] | EC50 [4] [µM] | EC50 [5] [µM] | EC50 [6] [µM] | EC50 [7] [µM] | EC50 [8] [µM] | EC50 [9] [µM] | EC50 [10] [µM] | EC50 [11] [µM] | inhibition at 100000 µM [12] [%] | SMILES
3.58 ± 0.57 | 10.6 ± 1.3 | 8.91 ± 0.84 | 7.04 ± 0.51 | 4.94 ± 1.09 | 6.5 ± 1.02 | 9.6 ± 0.9 | 5.74 ± 0.45 | 3.53 ± 0.73 | 5.06 ± 0.7 | 6.33 ± 0.93 |  | Nc1ncnc2c1ncn2[C@@H]1O[C@H](COP(=O)(O)OP(=O)(O)OP(=O)(O)O)[C@@H](O)[C@H]1O [ATP]
 |  |  |  |  |  |  |  |  |  |  | 44 ± 4 | CCO [ethanol]
